In data set [1] the test system is MCF-7 cells. Nature of the data set: Combination (synergy) growth assay in MCF-7 cells, Combination Index. The following applies: MCF-7, 48 h; for Combination Effect with celecoxib / CI, combination with celecoxib: + 29 μM cel; for % Cell Growth, combination with celecoxib: + 29 μM cel (21.3 μM 1h, 2.9 μM 1g, 3.8 μM x-1); for CI, combination with celecoxib: CI <1 synergy, >1 antagonism. The format is cell-based, human.

The subject of data set [2] is carrageenan mice paw oedema. The data set is described as follows: Carrageenin-induced mouse paw edema. The format is in vivo, mice (AKR). The following applies: Mus musculus, ip, read-out: CPE, %. Here is the method: From the data of Table 7 it is obvious that anti-inflammatory activity of alkylsulfones and sulfoxides of furan-3(2H)-ones, including annelated derivatives are very similar.
The anti-inflammatory activity of compounds was performed using the carrageenan mice paw oedema assay. Animal of both sex (AKR), with exception of pregnant females were housed under standard conditions, receiving only water during the experimental period. […] The detailed description of the whole experiment reported previously. All the biological experiments were carried out in full compliance with the European Convention for the Protection of Vertebrate Animals used for Experimental or Other Scientific Purposes (ETS NO 123, Strasbourg, 03/18/1986): Strasbourg (France). European Treaty Series, № 123, March 18, 1986. 11 P. The project identification code and date of approval is 350880/3468 of 15-12-2014, University of Thessaloniki.
(Carrageenan injected into the paw causes an acute inflammation.)

The subject of data set [3] is MCF-7 cells. Nature of the data set: Growth inhibition assay, MCF-7 cells. The format is cell-based, human. The following applies: Homo sapiens, MCF7, 48 h, 48 h exposure.
Description: (§2) The cells were grown in the presence of each of the selected compounds as well as of the two well-known anti-neoplastic drugs gefitinib and 5-fluorouracil.
(§3) Each cell culture was treated appropriately, ensuring that DMSO concentration was kept below ≤ 0.2% (v/v) after every dilution. Cells were seeded in 24-well plates, at an initial density of 5 × 10^4 cells/mL. […] Cells were allowed to grow for additional 48 h before being harvested by trypsinization and subsequently counted (cell density; number of cells/mL) using a hemocytometer (Neubauer counting chamber) and optical microscopy. Cell growth was expressed as a percentage relative to that for the untreated control culture (only cells and medium, CTL).
Data set [4] deals with MCF-7 cells. Nature of the data set: Combination (synergy) growth assay in MCF-7 cells, Combination Index. The format is cell-based, human. The following applies: MCF-7, 48 h; for Combination Effect with 5-fluorouracil / CI, combination with 5-fluorouracil: + 0.3 μM 5-fu; for % Cell Growth, combination with 5-fluorouracil: + 0.3 μM 5-fu (21.3 μM 1h, 2.9 μM 1g, 3.8 μM x-1, 29 μM cel); for CI, combination with 5-fluorouracil / CI, combination with gefitinib: CI <1 synergy, >1 antagonism; for Combination Effect with gefitinib / CI, combination with gefitinib: + 70 μM gef; for % Cell Growth, combination with gefitinib: + 70 μM gef (27.5 μM 1h, 10 μM 1g, 10 μM x-1, 29 μM cel). Here is the method:
In addition, exposure of the MCF-7 cells to each of the compounds in combination with each one of the two anti-neoplastic drugs was performed in order to study the synergistic effect of the compounds. The results are shown in Table 9 and Figure 5 and Figure 6.

Data set [5] deals with HSC-3 cells. The data set is described as follows: Growth inhibition assay, HSC-3 cells. The following applies: for HSC-3 % Cell Growth: Compound concentration: 10μΜ; for IC50: Homo sapiens, HSC-3, 48 h, read-out: HSC-3 IC50 Values.
Description: as §2, §3
In data set [6] the target is T1, ovine COX-1 (Ovis aries, UniProt P05979).
T1 construct: purchased Cayman Chemical Co., Ann Arbor, MI, USA
T1 sequence (P05979 25-600): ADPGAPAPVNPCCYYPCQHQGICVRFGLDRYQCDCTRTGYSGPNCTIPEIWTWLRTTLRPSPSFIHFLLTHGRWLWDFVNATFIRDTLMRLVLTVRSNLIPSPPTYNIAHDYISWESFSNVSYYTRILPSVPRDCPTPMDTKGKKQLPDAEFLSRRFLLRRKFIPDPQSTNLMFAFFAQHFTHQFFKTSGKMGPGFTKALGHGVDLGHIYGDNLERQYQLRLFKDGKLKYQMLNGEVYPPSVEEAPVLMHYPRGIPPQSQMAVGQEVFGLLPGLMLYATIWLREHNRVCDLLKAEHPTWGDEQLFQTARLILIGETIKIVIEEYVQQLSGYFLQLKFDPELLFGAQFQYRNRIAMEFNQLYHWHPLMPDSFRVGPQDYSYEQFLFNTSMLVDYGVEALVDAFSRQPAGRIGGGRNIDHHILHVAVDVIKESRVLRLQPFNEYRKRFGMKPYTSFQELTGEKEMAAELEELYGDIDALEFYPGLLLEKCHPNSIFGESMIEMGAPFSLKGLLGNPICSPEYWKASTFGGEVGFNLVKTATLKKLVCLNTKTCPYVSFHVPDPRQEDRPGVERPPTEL
The data set is described as follows: In vitro COX-1 inhibition (Cayman COX Inhibitor Screening Assay kit). The format is biochemical. The following applies: for % Inhibition (COX-1): Compound concentration 50 μΜ, arachidonic acid 0.1 μM. Here is the method: (§1) The COX-1 and COX-2 activities of the compounds were measured using ovine COX-1 and human recombinant COX-2 enzymes included in the “COX Inhibitor Screening Assay” kit provided by Cayman (Cayman Chemical Co., Ann Arbor, MI, USA) as reported previously

In data set [7] the target is T2, human recombinant COX-2 (Homo sapiens, UniProt P35354).
T2 construct: purchased Cayman Chemical Co., Ann Arbor, MI, USA
T2 sequence (P35354 18-604): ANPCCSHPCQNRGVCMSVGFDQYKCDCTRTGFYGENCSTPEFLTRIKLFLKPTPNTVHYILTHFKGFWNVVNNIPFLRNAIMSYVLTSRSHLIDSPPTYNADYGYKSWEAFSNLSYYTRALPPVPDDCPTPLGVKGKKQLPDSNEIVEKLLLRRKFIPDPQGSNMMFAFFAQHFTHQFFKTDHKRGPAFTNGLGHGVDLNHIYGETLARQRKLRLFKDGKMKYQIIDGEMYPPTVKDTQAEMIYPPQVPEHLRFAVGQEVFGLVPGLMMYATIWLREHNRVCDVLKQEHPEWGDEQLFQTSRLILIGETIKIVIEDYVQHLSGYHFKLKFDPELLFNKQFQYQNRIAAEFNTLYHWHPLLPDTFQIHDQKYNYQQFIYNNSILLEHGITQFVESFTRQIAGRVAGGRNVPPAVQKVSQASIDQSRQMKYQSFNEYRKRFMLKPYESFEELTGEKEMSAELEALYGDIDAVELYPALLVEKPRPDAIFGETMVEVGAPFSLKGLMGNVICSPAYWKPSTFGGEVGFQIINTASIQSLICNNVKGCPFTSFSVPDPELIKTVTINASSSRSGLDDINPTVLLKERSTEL
Nature of the data set: In vitro COX-2 inhibition (Cayman COX Inhibitor Screening Assay kit). The format is biochemical. The following applies: for % Inhibition (COX-2): Compound concentration 50 μΜ, arachidonic acid 0.1 μM. Here is the method: as §1

The mark [8] stands for this setting: Dose 0.1 µmol/g, intraperitoneally, simultaneously with carrageenin.

Molecules are shown by their SMILES. “Also recorded” adds a separate entry of the source. Where two headings read alike, the source gives them in different places.

The term IC50 denotes the concentration needed to halve the response being measured. For the molecule `C[S+]([O-])c1ccc(C2=C(c3ccc(F)cc3)OC(C)(C)C2=O)cc1` (stereo not shown) [1g, 5-(4′-Fluorophenyl) 2,2-dimethyl-4-[4-(methylsulfinyl)phenyl]-furan-3(2H)-one], in data set [1], the “Combination Effect with celecoxib” value was “synergism”; the “% Cell Growth, combination with celecoxib” value stood at 36.6%; the “CI, combination with celecoxib” value was 0.750 ± 0.025 < 1. For the same molecule, the inhibition in vivo at 0.1 µmol/g in data set [2] (setting [8]) was 49%. Also, in data set [3], half-maximal inhibition (IC50) required 10 µM. Besides, in data set [4], the “Combination Effect with 5-fluorouracil” value is on record as “synergism”; the “% Cell Growth, combination with 5-fluorouracil” value was 19.1%; the “CI, combination with 5-fluorouracil” value is 0.058 ± 0.010 <1; the “Combination Effect with gefitinib” value was “synergism”. In data set [4], the “% Cell Growth, combination with gefitinib” value came to 36.5% and the “CI, combination with gefitinib” value was 0.780 ± 0.200 < 1. Moreover, in data set [5], the “HSC-3 % Cell Growth” value came out at 36 ± 4% and the IC50 was 7.5 µM. The HSC-3 growth inhibition in data set [5] (concentration of 10 μΜ) is 64%. Besides, the “% Inhibition (COX-1)” value in data set [6] was 73%. Also, in data set [6] (read-out: Experimental IC50 COX-1), the IC50 came to 2.8 µM. The “% Inhibition (COX-2)” value in data set [7] was found to be 0%. The IC50 in data set [7] (read-out: Experimental IC50 COX-2) is above 50 µM.
For orientation: melting point means the temperature, or range, at which the solid turns liquid. `CC1(C)OC(c2ccc(F)cc2)=C(c2ccc(S(C)(=O)=O)cc2)C1=O` [1h, 5-(4′-Fluorophenyl)-2,2-dimethyl-4-[4′-(methylsulfonyl)phenyl]-furan-3(2H)-one] registered a melting point of 191 to 192 °C. Also, in data set [1], the “Combination Effect with celecoxib” value is “antagonism”; the “% Cell Growth, combination with celecoxib” value turned out to be 38.6%; the “CI, combination with celecoxib” value is above 1. Besides, the inhibition in vivo at 0.1 µmol/g in data set [2] (setting [8]) turned out to be 48.8%. The molecule further gave an IC50 in data set [3] of 24 µM. In data set [4], the “Combination Effect with 5-fluorouracil” value is reported as “synergism”; the “% Cell Growth, combination with 5-fluorouracil” value is on record as 27.3%; the “CI, combination with 5-fluorouracil” value was 0.533 ± 0.015 <1; the “Combination Effect with gefitinib” value is “antagonistic effect; also recorded: antagonism”. In data set [4], the “% Cell Growth, combination with gefitinib” value amounted to 45.9% and the “CI, combination with gefitinib” value is above 1. Also, in data set [5], the “HSC-3 % Cell Growth” value is recorded as 100 ± 10% and the 50% inhibitory concentration (IC50) was determined as 90 µM. In data set [6], the “% Inhibition (COX-1)” value is on record as 32%. Further, the “% Inhibition (COX-2)” value in data set [7] was determined as 0%.
In turn, `CC1(C)Oc2c(c3ccc(S(C)(=O)=O)cc3c3ccccc23)C1=O` [x-1, 2′,2′-dimethyl-3-(methylsulfonyl)-phenanthro[9,10-b]furan-3′(2′H)-one] displayed a melting point of 222 to 224 °C. In addition, in data set [1], the “Combination Effect with celecoxib” value is reported as “antagonism”; the “% Cell Growth, combination with celecoxib” value was found to be 60.6%; the “CI, combination with celecoxib” value is above 1. The inhibition in vivo at 0.1 µmol/g in data set [2] came out at 45%. Further, the half-inhibitory concentration (IC50) in data set [3] stood at 10 µM. For the same molecule, in data set [4], the “Combination Effect with 5-fluorouracil” value is recorded as “antagonistic effect; also recorded: antagonism”; the “% Cell Growth, combination with 5-fluorouracil” value is listed as 21.0%; the “CI, combination with 5-fluorouracil” value is above 1; the “Combination Effect with gefitinib” value was “synergism”. Further, in data set [4], the “% Cell Growth, combination with gefitinib” value is on record as 24.3% and the “CI, combination with gefitinib” value is 0.260 ± 0.033 < 1. Moreover, in data set [4] (listed as X-1), the “CI, combination with gefitinib” value worked out at 0.260. Also, in data set [5], the “HSC-3 % Cell Growth” value turned out to be 91 ± 10% and the IC50 worked out at 60 µM.

For the origin of these results see article PMC6539231, “4,5-Diaryl 3(2H)Furanones: Anti-Inflammatory Activity and Influence on Cancer Growth” (Molecules, 2019).
